The source of these data is patent US20120177697A1, “Excipients In Drug Delivery Vehicles” (Durect Corporation, priority 2003, published 2012).

A short description of series [1]: Saturation concentration in de-ionized water. Type of series: physicochemical. The following applies: DI water. As to the method: Bupivacaine hydrochloride (Sigma-Aldrich Corporation, St. Louis, Mo.) was dissolved in de-ionized (DI) water at a concentration of 40 mg/ml (saturation). A calculated amount of sodium hydroxide (1 N solution) was added to the solution and the pH of the final mixtures was adjusted to 10 to precipitate the BP base. The precipitated product was filtered, and further washed with DI water for at least three times. The precipitated product was dried at approximately 40° C. in vacuum for 24 hours.

For series [2] the following is noted: cited from earlier work.

The structures appear in SMILES notation. Where a name gives a salt, the structure may show the parent alone.

Regarding `CCCCN1CCCCC1C(=O)Nc1c(C)cccc1C` (centres unmarked) [Bupivacaine hydrochloride], the “concentration in de-ionized water at saturation” value in series [1] is 40000 µg/mL.
Consider `CC(=O)OCC(COC(C)=O)OC(C)=O` [triacetin], for which, in series [2], the “reported solubility in water” value is 7.17 grams in 100 ml of water.
